# Publication PMC11595589, “A Pharmacokinetic and Bioavailability Study of Ecklonia cava Phlorotannins Following Intravenous and Oral Administration in Sprague–Dawley Rats” (Marine Drugs, 2024)
# Read-outs that look alike come from different tables or passages of the source. Marks after values point to notes of the source that are not given here.
# Test: Single-dose pharmacokinetics after IV bolus administration of EK-ECP
# Format: in vivo, male Sprague–Dawley rats
# Conditions: IV bolus 10 mg/kg EK-ECP; for T1/2 (terminal half-life) / half-life / AUC(0-t) / Vd / AUC(0-inf) / MRT last / C0: mean (CV); for T1/2 (terminal half-life) / half-life / AUC(0-t) / Vd: 10 mg/kg; for Tlast: median (minimum-maximum); for half-life / AUC(0-t) / Vd / AUC(0-inf) / MRT last / C0 / clearance: male, Sprague-Dawley, rat; for half-life / AUC(0-t) / Vd: iv; for clearance: read-out: Mean clearance (Cl) (converted)
# Method: EK-ECP was administered to male Sprague–Dawley rats by either IV bolus (Group 1, 10 mg/kg) or oral gavage (Groups 2, 3 or 4, at 10, 100 or 1000 mg/kg, respectively) administration. Blood collection intervals were pre dose (0), and 0.25, 0.5, 1, 2, 4, 6, 8, 12, 24 and 36 h post dose. Plasma samples were analyzed for concentrations of 8,8′-bieckol, dieckol, and PFF-A; all pre-dose sample results were less than the lower limit of quantitation (LLOQ < 1 ng/mL). The time profiles of the plasma concentrations of 8,8′-bieckol, dieckol, and PFF-A in individual animals are illustrated in Figure 4. The mean pharmacokinetic parameters and corresponding coefficient of variation (CV) following IV administration of 10 mg/kg EK-ECP to male rats are illustrated in Table 1. Those following oral administrations of 10, 100 and 1000 mg/kg EK-ECP to male rats are illustrated in Table 2.
# Total of 20 male CD® [Crl:CD®(SD)] rats (approximately 11.5 weeks of age) obtained from Charles River Laboratories (Portage, MI, USA) were used in our study. These included five rats with both jugular and femoral vein cannulations, and 15 rats with jugular vein cannulations. Of the 20 animals received, 16 male rats were placed in the study, comprising four rats with both jugular and femoral vein cannulations, and 12 rats with jugular vein cannulations. The rats were housed in the Mattawan facility of MPI Research Inc (currently Charles River Laboratories, Mattawan, MI, USA). Animal welfare for this study was in compliance with the U.S. Department of Agriculture’s (USDA) Animal Welfare Act (9 CFR Parts 1, 2 and 3). This facility maintained an animal welfare assurance statement with the National Institutes of Health Office of Laboratory Animal Welfare. All procedures were approved before the study by the institutional animal care utilization committee. Animals were individually housed and fed a basal diet of Lab Diet Certified Rodent Diet #5002, PMI Nutrition International, Inc. Food and water was available ad libitum except during fasting periods, when food was withheld, and during any required restraint periods, when both food and water were withheld. Animal rooms were maintained at (20 ± 2) °C and (50 ± 20)% relative humidity with a 12 h light/dark cycle throughout the study.
# For intravenous administration, EK-ECP was dissolved in 70/25/5 (v/v) phosphate-buffered saline (PBS)/propylene glycol/ethanol (pH 5.1 final concentration of 2 mg/mL) and stabilized at room temperature for 24 h. For oral administration, after an amount of EK-ECP appropriate to the final targeted formulation concentrations was weighed and placed in a bottle, a small amount of the vehicle (water for injection) was added and mixed using a vortex mixer and heated to between 60 to 70 °C until homogeneously suspended. Additional amounts of the vehicle were gradually added to yield the targeted EK-ECP concentrations (1, 10, and 100 mg/mL). Dosing occurred within 4 h after preparation completion. The individual constituent doses of dieckol, 8,8′-bieckol, and PFF-A in each dosing formulation were analyzed by RP-HPLC followed by interpolation of the corresponding area% to the calibration curve prepared with known concentrations of isolated standards. The animals were fasted for a minimum of 4 h prior to dosing and through the first 4 h of blood sample collection. Each animal in Group 1 received a single intravenous (IV) dose of the 10 mg/kg EK-ECP. The intravenous doses were administered as a slow bolus injection over 5 min through the femoral vein cannula. The cannula was flushed with approximately 0.3 mL of sterile 0.9% sodium chloride for injection, USP, immediately following dosing. Each animal in Groups 2, 3 and 4 received a single oral (PO) gavage dose of the appropriate test article formulation, as outlined Table 3. Oral gavage dosing formulations were continuously stirred throughout dosing. […]
# [1] = plasma, ln(2)·MRTlast, read-out: Effective T1/2 (converted)
# [2] = plasma, read-out: T1/2 (terminal half-life) (converted)
Structure (SMILES),plasma concentrations quantifiable up to [h],T1/2 (terminal half-life),Tlast,half-life [1] [min],"AUC(0-t) (plasma, read-out: AUC(0–24h)) [ng·h/mL]","AUC(0-t) (plasma, read-out: AUCTlast) [ng·h/mL]",half-life [2] [min],"Vd (plasma, read-out: Vss) [L/kg]","Vd (plasma, read-out: Vz) [L/kg]",AUC(0-inf) (plasma) [ng·h/mL],MRT last (plasma) [h],clearance (plasma) [mL/min/kg],C0 (plasma) [ng/mL],further results
"Oc1cc(O)cc(Oc2c(O)cc(O)c3c2Oc2c(cc(O)c(-c4c(O)cc5c(c4O)Oc4c(Oc6cc(O)cc(O)c6)c(O)cc(O)c4O5)c2O)O3)c1 [8,8′-bieckol]",36,9.42 (9) h,36 (36–36) h,,,,,,,,,,,"half-life (in vivo, ln(2)·MRTlast, read-out: Effective T1/2 (converted)): 78 min; AUC(0-t) (in vivo, read-out: AUC(0–24h)): 6540 ng·h/mL; AUC(0-t) (in vivo, read-out: AUCTlast): 6620 ng·h/mL; half-life (in vivo, read-out: T1/2 (terminal half-life) (converted)): ~565 min; Vd (in vivo, read-out: Vss): 0.366 L/kg; Vd (in vivo, read-out: Vz): 2.2 L/kg; AUC(0-inf) (in vivo): 6670 ng·h/mL; MRT last (in vivo): 1.88 h; C0 (in vivo, plasma): 7220 ng/mL; clearance (in vivo): 2.7 mL/min/kg"
"Oc1cc(O)cc(Oc2c(O)cc(O)c3c2Oc2c(O)cc4oc5c(Oc6cc(O)cc(O)c6)c(O)cc(O)c5c4c2O3)c1 [PFF-A, phlorofucofuroeckol-A]",2,0.731 (4) ^c h,2 (1–2) h,21.6,9.03,7.81,~43.9,77.6,89.2,10.1,0.52,1400,12.8,
Oc1cc(O)cc(Oc2c(O)cc(O)c3c2Oc2c(O)cc(Oc4c(O)cc(Oc5c(O)cc(O)c6c5Oc5c(O)cc(O)cc5O6)cc4O)cc2O3)c1 [dieckol],36,11.9 (7) h,36 (36–36) h,88.8,5190,5290,~714,0.57,3.35,5390,2.14,3.22,8890,
